Values quoted from earlier work in patent US12551473B2, “Compositions and methods for increasing athletic performance” (VDF Futureceuticals, Inc., priority 2015, dated 2026).

Key:
skin blood flow = conditions: during cycling exercise at 55% VO2max
systolic blood pressure = conditions: 5.5 mmol/day, acute (1 day) and chronic (6 day), during cycling in healthy young men

Row | SMILES | skin blood flow (skin blood flow) | reduced systolic blood pressure (mean) (systolic blood pressure) [mmHg]
1 | CN(C)C(=O)Oc1ccc[n+](C)c1 [pyridostigmine] | reduces | –
2 | O=[N+]([O-])O [nitrate] | – | 6
